Experimental data as given in US9474790B2, “Stable, protracted GLP-1/glucagon receptor co-agonists for medical use” (Novo Nordisk A/S, priority 2013, dated 2016).
Numbered stars: 1 amine (or outer) side, 2 acyl side, 3 side chain; on linkers, the order of the positions; unused ones are H or OH. Square brackets hold non-standard residues; d marks the D form. Side chains are listed from the residue outwards. Peptide text beside a SMILES is read from it. * marks the point of attachment. C18 diacid = O=C(O)CCCCCCCCCCCCCCCCC(=O)*; γGlu = O=C(O)[C@H](CCC(=O)[*:2])N[*:1]; AEEA = NCCOCCOCC(=O)O; Aib = CC(C)(N)C(=O)O

Target: T1, human GLP-1 receptor (Homo sapiens, UniProt P43220)
T1 construct: expressed in transfected cells; host or cells: BHK cells (parent BHKTS13), clone FCW467-12A/KZ10-1, with CRE luciferase
Test: GLP-1 receptor potency, CRE luciferase reporter gene assay in BHK cells
Assay type: cell-based
Conditions: BHK cells expressing human GLP-1 receptor, read-out: EC50 GLP-1R
Procedure: The purpose of this example was to test the potency, of the glucagon derivatives of the invention, in vitro. The in vitro potency is the measure of human GLP-1 receptor or glucagon receptor activation, respectively, in a whole cell assay.
In vitro potency was determined by measuring the response of human GLP-1 or glucagon receptor, respectively, in a reporter gene assay. The assay was performed in a stably transfected BHK cell line that expresses either the human GLP-1 receptor or the human glucagon receptor and contains the DNA for the cAMP response element (CRE) coupled to a promoter and the gene for firefly luciferase (CRE luciferase). […] When assay incubation was completed, the luciferase substrate (luciferin) was added and the enzyme converted luciferin to oxyluciferin and produces bioluminescence. The luminescence was measured as the readout for the assay.
The cells used in this assay (clone FCW467-12A/KZ10-1) were BHK cells with BHKTS13 as a parent cell line. The cells were derived from a clone (FCW467-12A) that expresses the human GLP-1 receptor and were established by further transfection with
CRE luciferase to obtain the current clone.
The cells were cultured at 5% CO2 in DMEM medium with 10% FBS, 1×GlutaMAX, 1 mg/ml G418, 240 nM MTX (methotrexate) and 1% pen/strep (penicillin/streptomycin). They were aliquoted and stored in liquid nitrogen. Before each assay, an aliquot was taken up and washed three times in PBS before being suspended at the desired concentration in assay medium. For 96-well plates the suspension was made to give a final concentration of 5×10EE3 cells/well.
The following chemicals were used in the assay: Pluronic F-68 (10%) (Gibco 2404), ovalbumin (Sigma A5503), DMEM w/o phenol red (Gibco 11880-028), 1 M Hepes (Gibco 15630), Glutamax 100× (Gibco 35050) and steadylite plus (PerkinElmer 6016757).
Assay Medium consisted of DMEM w/o phenol red, 10 mM Hepes, lx GlutaMAX, 2% Ovalbumin and 0.2% Pluronic F-68.
Cell stocks were thawed in a 37° C. water bath. Cells were washed three times in PBS. The cells were counted and adjusted to 5×10EE3 cells/50 μl (1×10EE5 cells/ml) in Assay Medium. A 50 μl aliquot of cells was transferred to each well in the assay plate.
Stocks of the test compounds and reference compounds were diluted to a concentration of […] in Assay Medium. Compounds were diluted 10-fold to give the following concentrations: 2×10EE-6 M, 2×10EE-7 M, 2×10EE-8 M; 2×10EE-9 M, 2×10EE-10 M, 2×10EE-11 M, 2×10EE-12 M and 2×10EE-13 M. For each compound a blank assay medium control was also included.
A 50 μl aliquot of compound or blank was transferred from the dilution plate to the assay plate. Compounds were tested at the following final concentrations: 1×10EE-6 M, 1×10EE-7 M, 1×10EE-8 M; 1×10EE-9 M, 1×10EE-10 M, 1×10EE-11 M and 1×10EE-12 M and 1×10EE-13 M.
The assay plate was incubated for 3 h in a 5% CO2 incubator at 37° C. The assay plate was removed from the incubator and allowed to stand at room temperature for 15 min. A 100 μl aliquot of steadylite plus reagent was added to each well of the assay plate (reagent is light sensitive). Each assay plate was covered with aluminum foil to protect it from light and shaken for 30 min at room temperature. Each assay plate was read in a Perkin Elmer TopCount NXT instrument.
The data from the TopCount instrument was transferred to GraphPad Prism software. The software performed a non-linear regression (log(agonist) vs response-Variable slope (four parameter)). EC50 values were calculated by the software and reported in pM.

T1 sequence (P43220 24-463): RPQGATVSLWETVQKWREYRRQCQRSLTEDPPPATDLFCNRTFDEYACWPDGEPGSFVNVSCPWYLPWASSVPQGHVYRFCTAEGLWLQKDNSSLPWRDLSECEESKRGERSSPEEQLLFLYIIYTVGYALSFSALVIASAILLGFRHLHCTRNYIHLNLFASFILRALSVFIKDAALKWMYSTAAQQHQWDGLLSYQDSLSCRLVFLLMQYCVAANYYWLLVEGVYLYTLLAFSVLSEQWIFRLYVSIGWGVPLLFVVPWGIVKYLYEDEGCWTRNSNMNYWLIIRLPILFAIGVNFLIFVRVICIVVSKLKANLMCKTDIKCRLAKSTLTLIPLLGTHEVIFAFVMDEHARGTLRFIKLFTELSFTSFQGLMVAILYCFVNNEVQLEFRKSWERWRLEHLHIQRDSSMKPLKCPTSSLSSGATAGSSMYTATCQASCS

SMILES | EC50
CC(C)C[C@H](NC(=O)[C@H](Cc1ccc(O)cc1)NC(=O)[C@H](CCCCN)NC(=O)[C@H](CO)NC(=O)[C@H](CC(C)C)NC(=O)[C@H](CC(=O)O)NC(=O)[C@H](CO)NC(=O)[C@@H](NC(=O)[C@H](Cc1ccccc1)NC(=O)[C@@H](NC(=O)CNC(=O)[C@H](CCC(N)=O)NC(=O)C(C)(C)NC(=O)[C@@H](N)Cc1c[nH]cn1)[C@@H](C)O)[C@@H](C)O)C(=O)N[C@@H](CC(=O)O)C(=O)N[C@@H](CO)C(=O)N[C@@H](CCCNC(=N)N)C(=O)N[C@@H](CCCNC(=N)N)C(=O)N[C@@H](C)C(=O)N[C@@H](CCCNC(=N)N)C(=O)N[C@@H](CCCCNC(=O)CC[C@H](NC(=O)CC[C@H](NC(=O)COCCOCCNC(=O)COCCOCCNC(=O)CC[C@H](NC(=O)CCCCCCCCCCCCCCCCC(=O)O)C(=O)O)C(=O)O)C(=O)O)C(=O)N[C@@H](Cc1ccccc1)C(=O)N[C@H](C(=O)N[C@@H](CCC(N)=O)C(=O)N[C@@H](Cc1c[nH]c2ccccc12)C(=O)N[C@@H](CC(C)C)C(=O)N[C@@H](CC(C)C)C(=O)N[C@@H](CO)C(=O)N[C@H](C(N)=O)[C@@H](C)O)C(C)C [Example 2] (H-H[Aib]QGTFTSDLSKYLDSRRARK([γGlu-γGlu-AEEA-AEEA-γGlu-C18 diacid])FVQWLLST-NH2; N-terminus assumed) | 0.044 nM
CC(C)C[C@H](NC(=O)[C@H](Cc1ccc(O)cc1)NC(=O)[C@H](CCCCN)NC(=O)[C@H](CO)NC(=O)[C@H](CC(C)C)NC(=O)[C@H](CC(=O)O)NC(=O)[C@H](CO)NC(=O)[C@@H](NC(=O)[C@H](Cc1ccccc1)NC(=O)[C@@H](NC(=O)CNC(=O)[C@H](CCC(N)=O)NC(=O)C(C)(C)NC(=O)[C@@H](N)Cc1c[nH]cn1)[C@@H](C)O)[C@@H](C)O)C(=O)N[C@@H](CC(=O)O)C(=O)N[C@@H](CO)C(=O)N[C@@H](CCCNC(=N)N)C(=O)N[C@@H](CCCNC(=N)N)C(=O)N[C@@H](C)C(=O)N[C@@H](CCCNC(=N)N)C(=O)N[C@@H](CC(=O)O)C(=O)N[C@@H](Cc1ccccc1)C(=O)N[C@H](C(=O)N[C@@H](CCCCNC(=O)CC[C@H](NC(=O)CC[C@H](NC(=O)COCCOCCNC(=O)COCCOCCNC(=O)CC[C@H](NC(=O)CCCCCCCCCCCCCCCCC(=O)O)C(=O)O)C(=O)O)C(=O)O)C(=O)N[C@@H](Cc1c[nH]c2ccccc12)C(=O)N[C@@H](CC(C)C)C(=O)N[C@@H](CC(C)C)C(=O)N[C@@H](CO)C(=O)N[C@H](C(N)=O)[C@@H](C)O)C(C)C [Example 3, N^ε24-[(4S)-4-carboxy-4-[[(4S)-4-carboxy-4-[[2-[2-[2-[[2-[2-[2-[[(4S)-4-carboxy-4-(17-carboxyheptadecanoylamino)butanoyl]amino]ethoxy]ethoxy]acetyl]amino]ethoxy]ethoxy]acetyl]amino]butanoyl]amino]butanoyl]-[Aib2,Leu10,Arg20,Lys24,Leu27,Ser28]-Glucagon amide] (H-H[Aib]QGTFTSDLSKYLDSRRARDFVK([γGlu-γGlu-AEEA-AEEA-γGlu-C18 diacid])WLLST-NH2; N-terminus assumed) | 0.006 nM
CC(C)C[C@H](NC(=O)[C@H](CC(C)C)NC(=O)[C@H](Cc1c[nH]c2ccccc12)NC(=O)[C@H](CCC(N)=O)NC(=O)[C@@H](NC(=O)[C@H](Cc1ccccc1)NC(=O)[C@H](CC(=O)O)NC(=O)[C@H](CCCNC(=N)N)NC(=O)[C@H](C)NC(=O)[C@H](CCCNC(=N)N)NC(=O)[C@H](CCCNC(=N)N)NC(=O)[C@H](CO)NC(=O)[C@H](CC(=O)O)NC(=O)[C@H](CC(C)C)NC(=O)[C@H](Cc1ccc(O)cc1)NC(=O)[C@H](CCCCN)NC(=O)[C@H](CO)NC(=O)[C@H](CC(C)C)NC(=O)[C@H](CC(=O)O)NC(=O)[C@H](CO)NC(=O)[C@@H](NC(=O)[C@H](Cc1ccccc1)NC(=O)[C@@H](NC(=O)CNC(=O)[C@H](CCC(N)=O)NC(=O)C(C)(C)NC(=O)[C@@H](N)Cc1c[nH]cn1)[C@@H](C)O)[C@@H](C)O)C(C)C)C(=O)N[C@@H](CO)C(=O)N[C@@H](CCCCNC(=O)CC[C@H](NC(=O)CC[C@H](NC(=O)COCCOCCNC(=O)COCCOCCNC(=O)CC[C@H](NC(=O)CCCCCCCCCCCCCCCCC(=O)O)C(=O)O)C(=O)O)C(=O)O)C(N)=O [Example 5, N^ε29-[(4S)-4-carboxy-4-[[(4S)-4-carboxy-4-[[2-[2-[2-[[2-[2-[2-[[(4S)-4-carboxy-4-(17-carboxyheptadecanoylamino)butanoyl]amino]ethoxy]ethoxy]acetyl]amino]ethoxy]ethoxy]acetyl]amino]butanoyl]amino]butanoyl]-[Aib2,Leu10,Arg20,Leu27,Ser28,Lys29]-Glucagon amide] (H-H[Aib]QGTFTSDLSKYLDSRRARDFVQWLLSK([γGlu-γGlu-AEEA-AEEA-γGlu-C18 diacid])-NH2; N-terminus assumed) | 0.005 nM
CC(C)C[C@H](NC(=O)[C@H](Cc1ccc(O)cc1)NC(=O)[C@H](CCCCN)NC(=O)[C@H](CO)NC(=O)[C@H](CC(C)C)NC(=O)[C@H](CC(=O)O)NC(=O)[C@H](CO)NC(=O)[C@@H](NC(=O)[C@H](Cc1ccccc1)NC(=O)[C@@H](NC(=O)CNC(=O)[C@H](CCC(N)=O)NC(=O)C(C)(C)NC(=O)[C@@H](N)Cc1c[nH]cn1)[C@@H](C)O)[C@@H](C)O)C(=O)N[C@@H](CC(=O)O)C(=O)N[C@@H](CO)C(=O)N[C@@H](CCCNC(=N)N)C(=O)N[C@@H](CCCNC(=N)N)C(=O)N[C@@H](C)C(=O)N[C@@H](CCCNC(=N)N)C(=O)N[C@@H](CC(=O)O)C(=O)N[C@@H](Cc1ccccc1)C(=O)N[C@H](C(=O)N[C@@H](CCC(N)=O)C(=O)N[C@@H](Cc1c[nH]c2ccccc12)C(=O)N[C@@H](CC(C)C)C(=O)N[C@@H](CC(C)C)C(=O)N[C@@H](CO)C(=O)N[C@H](C(=O)N[C@@H](CCCCNC(=O)CC[C@H](NC(=O)CC[C@H](NC(=O)COCCOCCNC(=O)COCCOCCNC(=O)CC[C@H](NC(=O)CCCCCCCCCCCCCCCCC(=O)O)C(=O)O)C(=O)O)C(=O)O)C(N)=O)[C@@H](C)O)C(C)C [Example 6, N^α-([Aib2,Leu10,Arg20,Leu27,Ser28]-Glucagonyl)-N{Epsilon}[(4S)-4-carboxy-4-[[(4S)-4-carboxy-4-[[2-[2-[2-[[2-[2-[2-[[(4S)-4-carboxy-4-(17-carboxyheptadecanoylamino)butanoyl]amino]ethoxy]ethoxy]acetyl]amino]ethoxy]ethoxy]acetyl]amino]butanoyl]amino]butanoyl]Lys amide] (H-H[Aib]QGTFTSDLSKYLDSRRARDFVQWLLSTK([γGlu-γGlu-AEEA-AEEA-γGlu-C18 diacid])-NH2) | 0.02 nM
